Results published in publication PMC11352932, “Enhancing Maturation and Translatability of Human Pluripotent Stem Cell-Derived Cardiomyocytes through a Novel Medium Containing Acetyl-CoA Carboxylase 2 Inhibitor” (Cells, 2024).
Positions of bridges follow the written chain, without caps; N, C: chain ends. No end group written: not given here.

Experiments:
[1] = test system: IK1, encoded by Kir channels; test: Block of inward current in voltage-clamp; type: cell-based, human; conditions: hiPSC-CMs cultured in maturation medium
Procedure: All recordings were performed at RT.
Cells were superfused with an extracellular solution containing (mM) NaCl 136.8, KCl 4, HEPES 10, CaCl2 2, MgCl2 1, and Glucose 10 (pH adjusted to 7.2 with NaOH) for AP recording and K^+ current whole-cell recording. For whole-cell recording of Na^+ and Ca^2+ currents, the following extracellular solution was used (mM): NaCl 40, KCl 4, NMDG 96.8, HEPES 10, CaCl2 2, MgCl2 1, and Glucose 10 (pH adjusted to 7.2 with HCl); 1 mM of CdCl2 was also added to block L-type Ca^2+ currents when recording Na^+ currents.
Patch pipettes contained (mM): KCl 150, HEPES 10, EGTA 10, and MgATP 2 (pH adjusted to 7.2 with KOH). For AP recording, perforated patch recording was used, and pipettes were backfilled with a solution containing 50 μg/mL gramicidin (diluted from a 50 mg/mL gramicidin DMSO stock solution). A stock solution of ivabradine was prepared with DMSO. All stock solutions were diluted ≥1:1000 in extracellular solution before use.

[2] = test system: ACC2; design: method as in PMID 12842871; conditions: ACC2 isoform; cited from earlier work
[3] = test system: hiPSC-CMs; test: hiPSC-CM viability by number of nuclei; type: cell-based, human; conditions: number of nuclei after 7 days in culture
Procedure: We initially investigated the impact of increasing concentrations of the ACC inhibitor CP640186 (hereafter referred to as ACC2i, given the predominant expression of ACC2 in CMs) on hiPSC-CM viability. […] Based on these initial results, a concentration of 5 uM was selected for further examination of the role of ACC2i in improving hiPSC-CM maturation.
Figure S1. ACC2 inhibition enhances fatty acid oxidation. Increasing concentrations of ACC2 inhibition are toxic for hiPSC-CMs at concentrations exceeding 5uM. A. Schematic showing signaling cascade and mode of action of acetyl-CoA carboxylase (ACC). There are 2 ACC isoforms: ACC1 in cytosol that is dedicated to the rate limiting step of de novo lipogenesis, and ACC2 a mitochondrial membrane […]
palmitoyltransferase (CPT-1), responsible for long-chain fatty-acid transport into mitochondria.
Combined ACC1 and 2 inhibition is expected to reduce malonyl-CoA levels and de-novo lipogenesis, and to enhance CPT-1 activity and fatty acid oxidation (FAO). G-6-P (glucose-6-phosphate), TCA cycle (tricarboxylic acid cycle), ETC (electron transport chain). B. Impact of increasing doses of ACC2i on hiPSC-CMs viability assessed by number of nuclei after 7 days in culture.
ACC2i concentrations higher than 5 µm. Source of mitochondria image: Servier Medical Art. Statistical […]
(1 picture or pasted object on this page, not shown here)

[4] = test system: iPSC C32 CMs; test: Calcium imaging, Fluo-4, with and without isoproterenol; type: cell-based, human
Procedure: (§1) iPSC C32-derived CMs were mounted on glass-bottom organ dishes (MatTek, P35G-1.5-14-c) coated with matrigel and incubated with Fluo-4 (Molecular Probes) at 5 µM for 30 min. Fluo-4 was washed in Tyrode’s solution for 30 min before imaging. Cells were placed in Tyrode’s solution containing CaCl2: 1.8 mM; NaCl: 130 mM; KCl: 5.4 mM; HEPES: 25 mM; MgCl2·6H2O: 0.5 mM; NaH2PO4: 0.4 mM; pH 7.4 at 37 °C for imaging. CMs were paced at 1 Hz and live imaging was recorded at 98 fps using a Nikon Eclipse with a Yokogawa CSU-X1 spinning disk and an EM-CCD Andor camera for high-speed acquisition. Individual whole-cell calcium transient intensities were analyzed in R software (V4.3.1). iCell CMs^2 were plated in 96-well CellCarrier Ultra Phenoplates (PerkinElmer) coated with fibronectin and stained with the EarlyTox^TM Cardiotoxicity kit (Molecular Devices, San Jose, CA, USA), following the manufacturer’s recommendations. Calcium transients were analyzed in the FDSS/µCell system (Hamatsu Photonics, Hamamatsu, Japan). Data were analyzed using FDSS Wavefront Analysis Software (V.1.2.2E). Isoproterenol was used at a final concentration of 1 µM. Calcium transients are calculated as ∆F/F0, with signal leveling and background normalization, where F0 is background fluorescence and F is fluorescence intensity. For each cell, amplitude (peak intensity), upstroke velocity, decay velocity, and peak width at 70% duration (PWD70%) were calculated.
HiPSC-C32 CMs cultured in
Data are presented as mean
E. Representative fluorescent images
ACC2i, and maturation medium. Scale bars: 20µm.
Figure S6. Maturation medium enhances response to hERG blockers. AP recordings were obtained […]
antiarrhythmic known to specifically block hERG.

[5] = test system: hiPSC-CMs; test: Seahorse bioenergetics (Mito Stress test, etomoxir FAO); type: cell-based, human; conditions: maturation medium versus maturation medium without ACC2i
Procedure: The Seahorse XF96 extracellular flux analyzer (Agilent, Santa Clara, CA, USA) was used to assess mitochondrial function. Seahorse plates were coated with fibronectin, and hiPSC-CMs were seeded onto the plates at a density of 30,000 cells per well. Culture medium was exchanged for Agilent Seahorse XF RPMI Basal Medium supplemented with 5.5 mM glucose, 2 mM glutamine, 150 µM sodium pyruvate, 100 µM Palmitate/BSA, and 5 mM Hepes, 1 h before the assay and for the duration of the measurement. For the Mito Stress test, mitochondria inhibitors were injected during the measurements as follows: Oligomycin (2 µM), 2.4-Dinitrophenol (DNP, 225 µM), rotenone, and antimycin A (both at 1.11 µM). The oxygen consumption rate (OCR) and extracellular acidification rate (ECAR) values were normalized to the number of nuclei per well quantified by Hoechst staining and fluorescence imaging. The baseline OCR was defined as the average values measured from time points 2 to 4 during the experiments subtracting the non-mitochondrial oxygen consumption rate determined as the minimum rate measurement after rotenone/antimycin A injection. Spare respiratory capacity was calculated as the difference between uncoupler DNP and baseline OCR values. ATP production was calculated by subtracting the minimum rate measurement after Oligomycin injection from the last rate measurement before Oligomycin injection. Proton leak was calculated by subtracting non-mitochondrial OCR from the minimum rate measurement after Oligomycin injection. Lastly, oxidation of exogenous FA was measured after injection of 50 µM Etomoxir. OCR due to FA oxidation was determined by subtracting the minimum rate measurement after Etomoxir injection from the last rate measurement before Oligomycin injection. All wells with a basal respiratory rate below 40 pmol/min were excluded from analysis.

[6] = test system: iCell CMs^2; test: Calcium transients, EarlyTox dye, FDSS; type: cell-based, human; conditions: maturation medium vs maturation medium without ACC2i
Procedure: as §1

[7] = test system: ACC1; design: method as in PMID 12842871; conditions: ACC1 isoform; cited from earlier work
[8] = test system: hiPSC-CMs; test: In vitro hypertrophy model, ET-1 stimulation; type: cell-based, human; conditions: 10 nM ET-1, 48 h
Procedure: After 2 weeks in either standard or maturation media, medium was switched to hypertrophy stimulation medium composed of RPMI no glucose supplemented with B27 plus insulin, 5.5 mM glucose and 10 nM endothelin-1 (ET-1, E7764). hPSC-CMs were cultured for 48 h in this medium before their use for further analyses.
Cell area, circularity index, and aspect ratio were determined with FIJI (ImageJ v.2.14.0) software using standard analysis plugins. For each condition, at least 60 cells were analyzed.
RNA extraction was performed using the Agencourt RNAdvance Cell V2 kit (catalog no. A47942, Beckman Coulter, Bromma, Sweden) according to the manufacturer’s instructions. RNA quality was assessed using the Fragment Analyzer Standard Sensitivity RNA kit from Agilent Technologies, ensuring an RNA integrity number greater than 7. Library preparation for iCell cardiomyoctes^2 and Chips22 derived CMs was performed at the NGI (National Genomic Infrastructure, KTH, Stockholm, Sweden) using the Illumina TruSeq stranded mRNA library preparation kit. Clustering was conducted by ‘cBot’, and sequencing was performed on a NovaSeq 6000 (NovaSeq Control Software 1.6.0/RTA v3.4.4) with a 2 × 150 setup using the ‘NovaSeqXp’ workflow in the ‘S4’ flowcell. […] Sequenced reads were quality-controlled with the FastQC software and pre-processed with Trim Galore. Processed reads from iCell cardiomyocytes^2 and Chips22 were aligned to the reference genome GRCh37 with the STAR aligner, and Tophat2 with Bowties was used to map IPS C32 reads to GRCh38. Read counts for the genes were generated using the featureCounts library and normalized FPKM values calculated with StringTie. […]
Differences in gene expression were identified using the DESeq2 method. The analysis was based on read counts, which are required to assess the measurement precision accurately. […]

[9] = 1 µM isoproterenol, maturation medium compared to maturation medium without ACC2i

## COc1cc2c(cc1OC)CC(=O)N(CCCN(C)C[C@H]1Cc3cc(OC)c(OC)cc31)CC2 [ivabradine]
[1]; 10 µM ivabradine
  block of inward current: ~ 5%

## O=C(c1c2ccccc2cc2ccccc12)N1CCC(N2CCC[C@@H](C(=O)N3CCOCC3)C2)CC1 [CP-640186]
[2]
  IC50: ~55 nM
[3]
  ACC2i concentration resulting in a decrease in the number of nuclei (potential cardiac toxicity): exceeding 5 uM
[4]; with ACC2i vs without
  calcium transient amplitude and kinetics: significantly improved
[5]
  FAO reliance (change in basal respiration upon etomoxir): significantly increased
[5]; 5 µM ACC2i
  increase in reserve capacity: 1.7 fold
  reduction in energy dissipation through proton leak: 2.5 fold
[6]
  calcium transient duration: reduction
  calcium uptake and decay kinetics: significant enhancement
  transient calcium amplitude: no change
[7]
  IC50: ~55 nM

## [Ba+2].[Cl-].[Cl-] [Ba^2+, BaCl2]
[1]; 100 µM Ba2+
  block of inward current: > 90%

## CC(C)NCC(O)c1ccc(O)c(O)c1 (centres unmarked) [isoproterenol]
[4]; [9]
  increase in amplitude upon stimulation: significantly higher increase
  increase in beat rate upon stimulation: significantly higher increase

## endothelin-1 (CSCSSLMDKECVYFCHLDIIW; disulfide 1-15, 3-11; ends not checked; UniProt P05305 53-73, looked up) [ET-1]
[8]; cells cultured in standard medium
  structural changes: no significant structural changes
[8]; maturation medium group
  cell area: trend towards increased
  length-to-width ratio: significant decrease
